Results as given in patent US10730870B2, “Compounds and methods for the enhanced degradation of targeted proteins” (Arvinas, Inc., priority 2015, dated 2020).

Columns and labels:
[1] = system: Androgen Receptor; test: Androgen receptor ELISA assay (AR degradation) in LNCaP and/or VCaP cells; assay type: cell-based; settings: AR PROTACs
Experimental: Compounds have been evaluated in this assay in LNCaP and/or VCaP cells utilizing similar protocols. The protocols used with VCaP cells are described below. The androgen receptor ELISA assay was performed using PathScan AR ELISA (Cell Signaling Catalog #12850) according to the following assay steps:
VCaP cells are seeded at 30,000 cells/well at a volume of 200 μL/well in VCaP assay medium [Phenol red free RPMI (Gibco Cat #11835-030); 5% Charcoal Stripped (Dextran treated) FBS (Omega Scientific, Cat # FB-04); Pen/Strep Life Technologies (Gibco Cat #: 10378-016); 0.1 nM R1881 (Sigma, Cat # R0908) is added upon the start of the assay, not during initial plating of the cells) in Corning 3904 plates. The cells are grown for a minimum of 3 days.
(2)(i) Make 10× stock plate in media; (ii) transfer 2.5 μL of the 1000× stock to a new 10× stock plate (use 12 channel pipet, start at A (DMSO control) work thru H. When 247.5 μL of media is added to this plate, it will serve as a 10× stock; (iii) make media+1 nM R1881 for making 10× stock plate; (iv) add 247.5 μL of media with 1 nM R1881 to each well of the 10× stock plate, mix.
Then 22 μL of 10× stock is added to cells and incubated for 24h. 1× Cell Signaling Cell lysis buffer is made (Catalogue #9803; comes with the kit)—prepare for 50 μL/well. Keep on ice. Media is aspirated, and 50 μL 1× cell lysis buffer/well is added. The cells are placed on ice for 10 minutes. The solution is mixed and transferred to PCR plate, and centrifuged at 4 C for 10 minutes at 4000 rpm.
5 μL is transferred to fresh plate (use immediately or freeze −80 C); 115 μL ELISA Dilutant is added (0.15 ug/ml-0.075 ug/ml; comes with the PathScan ELISA).
Add 100 μL/well AR Elisa; cover and shake, 37 C for 2 hrs; dump, tap, wash 4×200 μL ELISA wash buffer; add 100 μL/well mouse AR detection Ab; cover and shake, 37 C for 1 hr; dump, tap, wash 4×200 μL ELISA wash buffer; add 100 μL/well anti-mouse—HRP conjugated Ab (comes with the kit); cover and shake, 37 C for 30 min; allow TMB reagent to come to RT; dump, tap, wash 4×200 μL Elisa wash buffer; tap; add 100 μL TMB, shake 5 min—while watching color. Add the stop reagent when light blue color develops. Add 100 μL Stop solution; shake and read at 450 nm.
The results presented in Table 3 were generated using the androgen receptor ELISA Assay described above, where compound potencies were characterized in highest percentage of Androgen Receptor degradation (Dmax) observed.

[2] = target: VHL (Homo sapiens (Human), UniProt P40337); test: VHL fluorescence polarization (FP) competition assay; assay type: binding

IC50 ([2]; 1% in DMSO) [nM]	IC50 ([2]; 10% in DMSO) [nM]	Structure (SMILES)	further results
–	–	Cc1ncsc1-c1ccc([C@H](C)NC(=O)[C@@H]2C[C@@H](O)CN2C(=O)[C@H](C(C)C)n2cc(OCCCOCCC(O)CCOc3ccc(N4C(=S)N(c5ccc(C#N)c(C(F)(F)F)c5)C(=O)C4(C)C)cc3)cn2)cc1 (stereo partly shown)	Dmax (highest percentage of Androgen Receptor degradation) [1]: +++ (51%≤Dmax≤70%)
418	–	Cc1ncsc1-c1ccc(CNC(=O)[C@@H]2C[C@@H](O)CN2C(=O)[C@H](C(C)C)N2Cc3ncccc3C2=O)cc1 [Example 99, (2S,4R)-4-hydroxy-1-((S)-3-methyl-2-(5-oxo-5H-pyrrolo[3,4-b]pyridin-6(7H)-yl)butanoyl)-N-(4-(4-methylthiazol-5-yl)benzyl)pyrrolidine-2-carboxamide]	–
626	320	COc1ccccc1CCC(=O)N[C@H](C(=O)N1C[C@H](O)C[C@H]1C(=O)NCc1ccc(-c2scnc2C)cc1)C(C)(C)C [Example 83, (2S,4R)-4-hydroxy-1-((S)-2-(3-(2-methoxyphenyl)propanamido)-3,3-dimethylbutanoyl)-N-(4-(4-methylthiazol-5-yl)benzyl)pyrrolidine-2-carboxamide]	–
2180	–	Cc1ncsc1-c1ccc(CNC(=O)[C@@H]2C[C@@H](O)CN2C(=O)[C@@H](NC(=O)[C@H](C)NC(=O)OC(C)(C)C)C(C)(C)C)cc1 [Example 122, tert-butyl (S)-1-((S)-1-((2S,4R)-4-hydroxy-2-(4-(4-methylthiazol-5-yl)benzylcarbamoyl)pyrrolidin-1-yl)-3,3-dimethyl-1-oxobutan-2-ylamino)-1-oxopropan-2-ylcarbamate]	–
1200	–	Cc1ncsc1-c1ccc(CNC(=O)[C@@H]2C[C@@H](O)CN2C(=O)[C@H](C(C)C)N2Cc3ccccc3C2=O)cc1F [Example 93, (2S,4R)—N-(3-fluoro-4-(4-methylthiazol-5-yl)benzyl)-4-hydroxy-1-((S)-3-methyl-2-(1-oxoisoindolin-2-yl)butanoyl)pyrrolidine-2-carboxamide]	–
6200	–	CCC[C@H](NC(C)=O)C(=O)N1C[C@H](O)C[C@H]1C(=O)NCc1ccc(-c2scnc2C)cc1 [Example 148, (2S,4R)-1-((S)-2-acetamidopentanoyl)-4-hydroxy-N-(4-(4-methylthiazol-5-yl)benzyl)pyrrolidine-2-carboxamide]	–
972	668	Cc1ncsc1-c1ccc(CNC(=O)[C@@H]2C[C@@H](O)CN2C(=O)[C@H](C(C)C)N2Cc3c(Cl)cccc3C2=O)cc1 [Example 68]	–
–	–	Cc1ncsc1-c1ccc(CNC(=O)[C@@H]2CC(=O)CN2C(=O)[C@H](C(C)C)N2Cc3ccccc3C2=O)cc1 [Example 61, (S)-1-((S)-3-methyl-2-(1-oxoisoindolin-2-yl)butanoyl)-N-(4-(4-methylthiazol-5-yl)benzyl)-4-oxopyrrolidine-2-carboxamide]	VHL FP Assay IC50 ([2]; 1% in DMSO): Not Active; VHL FP Assay IC50 ([2]; 10% in DMSO): Not Active
384000	263000	CC(=O)O[C@@H](C)C(=O)N1C[C@H](O)C[C@H]1C(=O)NCc1ccc(-c2scnc2C)cc1 [Example 87, (S)-1-((2S,4R)-4-hydroxy-2-(4-(4-methylthiazol-5-yl)benzylcarbamoyl)pyrrolidin-1-yl)-1-oxopropan-2-yl acetate]	–
~32000	472000	Cc1ncsc1-c1ccc(CNC(=O)[C@@H]2C[C@@H](O)CN2C(=O)[C@H]([C@H](C)O)N2Cc3ccccc3C2=O)cc1 [Example 45, (2S,4R)-4-hydroxy-1-((2S,3S)-3-hydroxy-2-(1-oxoisoindolin-2-yl)butanoyl)-N-(4-(4-methylthiazol-5-yl)benzyl)pyrrolidine-2-carboxamide]	–
169	–	COc1ccc(CCC(=O)N[C@H](C(=O)N2C[C@H](O)C[C@H]2C(=O)NCc2ccc(-c3scnc3C)cc2)C(C)(C)C)cc1 [Example 76, (2S,4R)-4-hydroxy-1-((S)-2-(3-(4-methoxyphenyl)propanamido)-3,3-dimethylbutanoyl)-N-(4-(4-methylthiazol-5-yl)benzyl)pyrrolidine-2-carboxamide]	–
1330	1190	Cc1ncsc1-c1ccc(CNC(=O)[C@@H]2C[C@@H](O)CN2C(=O)[C@H](C(C)C)N2Cc3cc(Cl)ccc3C2=O)cc1 [Example 73, (2S,4R)-1-((S)-2-(5-chloro-1-oxoisoindolin-2-yl)-3-methylbutanoyl)-4-hydroxy-N-(4-(4-methylthiazol-5-yl)benzyl)pyrrolidine-2-carboxamide]	–
3890	–	CC(=O)N[C@H](C(=S)N1C[C@H](O)C[C@H]1C(=O)NCc1ccc(-c2scnc2C)cc1)C(C)C [Example 130, (2S,4R)-1-((S)-2-acetamido-3-methylbutanethioyl)-4-hydroxy-N-(4-(4-methylthiazol-5-yl)benzyl)pyrrolidine-2-carboxamide]	–
2210	3600	Cc1ncsc1-c1ccc(CNC(=O)[C@@H]2C[C@@H](O)CN2C(=O)[C@@H](NC(=O)CCC(C)C)C(C)(C)C)cc1 [Example 28, (2S,4R)-1-((S)-3,3-dimethyl-2-(4-methylpentanamido)butanoyl)-4-hydroxy-N-(4-(4-methylthiazol-5-yl)benzyl)pyrrolidine-2-carboxamide]	IC50 ([2]; 0.25% in DMSO): 4470 nM
539	1080	Cc1ncsc1-c1ccc(CNC(=O)[C@@H]2C[C@@H](O)CN2C(=O)[C@H](C(C)C)N2Cc3c(F)cccc3C2=O)cc1 [Example 33, (2S,4R)-1-((S)-2-(4-fluoro-1-oxoisoindolin-2-yl)-3-methylbutanoyl)-4-hydroxy-N-(4-(4-methylthiazol-5-yl)benzyl)pyrrolidine-2-carboxamide]	IC50 ([2]; 0.25% in DMSO): 1940 nM
37700	–	CC[C@H](C)[C@H](NC(C)c1ccccc1)C(=O)N1C[C@H](O)C[C@H]1C(=O)NCc1ccc(-c2scnc2C)cc1 (stereo partly drawn) [Example 105, (2S,4R)-4-hydroxy-1-((2S,3S)-3-methyl-2-(1-phenylethylamino)pentanoyl)-N-(4-(4-methylthiazol-5-yl)benzyl)pyrrolidine-2-carboxamide]	–
35400	–	CC(C)[C@@H](C(=O)N1C[C@H](O)C[C@H]1C(=O)NCc1ccc(-c2cncn2C)cc1)N1Cc2ccccc2C1=O [Example 96, (2S,4R)-4-hydroxy-N-(4-(1-methyl-1H-imidazol-5-yl)benzyl)-1-((S)-3-methyl-2-(1-oxoisoindolin-2-yl)butanoyl)pyrrolidine-2-carboxamide]	–
1690	–	Cc1ncsc1-c1ccc(CNC(=O)C2(C)C[C@@H](O)CN2C(=O)[C@H](C(C)C)N2Cc3ccccc3C2=O)cc1 (stereo partly shown) [Example 132]	–
> 100000	> 100000	CC(C)[C@@H](C(=O)N1C[C@](C)(O)C[C@H]1C(=O)O)N1Cc2ccccc2C1=O [Example 79, (2S,4R)-4-hydroxy-4-methyl-1-[(2S)-3-methyl-2-(1-oxo-2,3-dihydro-1H-isoindol-2-yl)butanoyl]pyrrolidine-2-carboxylic acid]	–
2360	3920	CC(C)[C@@H](C(=O)N1C[C@H](O)C[C@H]1C(=O)NCc1ccc(-c2ccccc2)cc1)N1Cc2ccccc2C1=O [Example 40, (2S,4R)—N-(biphenyl-4-ylmethyl)-4-hydroxy-1-((S)-3-methyl-2-(1-oxoisoindolin-2-yl)butanoyl)pyrrolidine-2-carboxamide]	IC50 ([2]; 0.25% in DMSO): 17500 nM
1650	–	CC(C)[C@@H](C(=O)N1C[C@H](O)C[C@H]1C(=O)NCc1ccc(-c2ccnn2C)cc1)N1Cc2ccccc2C1=O [Example 92, (2S,4R)-4-hydroxy-N-(4-(1-methyl-1H-pyrazol-5-yl)benzyl)-1-((S)-3-methyl-2-(1-oxoisoindolin-2-yl)butanoyl)pyrrolidine-2-carboxamide]	–
1220	1940	C=Cc1ncsc1-c1ccc(CNC(=O)[C@@H]2C[C@@H](O)CN2C(=O)[C@H](C(C)C)N2Cc3ccccc3C2=O)cc1 [Example 4, (2S,4R)-4-hydroxy-1-((S)-3-methyl-2-(1-oxoisoindolin-2-yl)butanoyl)-N-(4-(4-vinylthiazol-5-yl)benzyl)pyrrolidine-2-carboxamide]	IC50 ([2]; 0.25% in DMSO): 3340 nM
8650	28000	CC(C)[C@@H](C(=O)N1C[C@H](O)C[C@H]1C(=O)N[C@@H](C)c1ccc(Br)cc1)N1Cc2ccccc2C1=O [Example 24, (2S,4R)—N—((S)-1-(4-bromophenyl)ethyl)-4-hydroxy-1-((S)-3-methyl-2-(1-oxoisoindolin-2-yl)butanoyl)pyrrolidine-2-carboxamide]	IC50 ([2]; 0.25% in DMSO): 1390 nM
